Measured values as given in US10265302B2, “Compound useful for the treatment of nonsense-mutation-mediated diseases and pharmaceutical composition comprising said compound” (UNIVERSITE DE LILLE, priority 2010, dated 2019).

Experiments:
[1] = system: CFTR mRNA (PTC at position 1282) in IB3 cells; experiment: NMD inhibition in IB3 cells (CFTR mRNA by RT-PCR); format: cell-based; conditions: increasing concentrations, 20 hours
Procedure: IB3 cells harbor a […] in position 1282 in place of the tryptophan codon of the CFTR gene.
IB3 cells (ATCC) were incubated in DMSO solutions containing pure DMSO (as a control) or increasing G07 concentrations, respectively, during 20 hours.
RNAs obtained after incubation were purified and a RT-PCR was performed to measure the amount of CFTR mRNA (containing a PTC) and the amount of GADPH mRNA (used as a control).

[2] = system: PTC-containing dystrophin gene in DMD cells; experiment: Dystrophin protein in DMD cells by Western blot; format: cell-based
Procedure: As regards the results of FIG. 11 b, DMD cells were incubated with increasing amounts of […] molecule or as a control with DMSO. Protein extracts from these cells were loaded on 10% SDS-PAGE and transferred on nitrocellulose membrane. Nitrocellulose membrane was then exposed to primary antibody (either anti-dystrophin antibody raised against the amino-part of dystrophin protein (Santa-Cruz), or anti-tubulin antibody in order to specify the loading protein amount of each lane.

CFTR in 6-CFSMEo- cells = experiment: Iodide efflux in 6-CFSMEo- cells (SPQ fluorescence); format: cell-based; conditions: 6-CFSMEo- cells, 0.2, 1, 5 and 25 μM; forskolin 20 μM and IBMX 200 μM
Procedure: 6-CFSMEo− cells harbor a PTC in place of the glutamine 2 codon of the CFTR gene.
6-CFSMEo^− cells were seeded in 96-well plates and loaded overnight with 10 mM of the halide-sensitive fluorophore dye 6-methoxy-N-(3-sulfopropyl)-quinolinium (SPQ, Invitrogen). Cells were washed twice with iodide buffer (135 mM NaI, 2.4 mM K2HPO4, 0.6 mM KH2PO4, 1 mM MgSO4, 1 mM CaSO4, 10 mM dextrose and 10 mM Hepes, pH 7.3) and then incubated in iodide buffer for 30 min. After basal fluorescence was measured for 2 min, the iodide buffer was replaced with nitrate buffer (with 135 mM NaNO3 instead of NaI) containing 20 μM of forskolin and 200 μM of IBMX, and fluorescence was further measured for 10 minutes. The fluorescence intensities were measured every 15 seconds using the Tristar LB 941 microplate reader (Berthold) equipped with a 340 nm excitation filter and a 450 nm emission filter. […] G07 concentrations used were 0.2 μM, 1 μM, 5 μM and 25 μM, respectively. The increase in iodide efflux is shown as mean±SEM from at least four independent assays. It refers to the fluorescence at the reading time; F0 refers to the average fluorescence before addition of the above-mentioned nitrate buffer containing 20 μM of forskolin and 200 μM of IBMX.

[3] = system: MOR mRNA (MOR gene with NMD-activating nonsense-mutation); experiment: In vivo NMD inhibition in KIM mice (MOR mRNA in brain); set-up: species or system mouse; conditions: 1Q and 2Q (0.2 and 2 mg/kg) injected in DMSO, 24 hours after injection
Procedure: In KIM mice, MOR gene harbors a NMD-activating nonsense-mutation. MOR gene is expressed in nervous central system. Solutions containing 0.2, 2 or 20 mg/kg of G07 (1Q, 2Q or 3Q respectively) dissolved in DMSO were injected into KIM mice. A control group consists of animals treated with pure DMSO. Animals were then euthanized 6, 24 or 32 hours after injection. RNAs extracted from brain homogenates were purified using TriReagent (MRC) and then analyzed as described with reference to FIG. 2. The difference between the experiments described with reference to FIG. 2 is that in the present case the mRNAs analyzed are the mRNA coding for MOR gene and the mRNA coding for the GAPDH gene used as a control to quantify measured MOR mRNA. The first 3 wells from the left correspond to a half dilution of a sample coming from a wild-type mouse brain. These 3 wells were used to check the PCR conditions which have to be quantitatively useful. […] The same technique as described with reference to FIG. 2 was used except the fact that RNA comes from KIM mice brains. Some of these KIM mice were injected with G07.

[4] = system: PTC-containing dystrophin gene in DMD cells; experiment: Dystrophin mRNA in DMD cells by RT-PCR; format: cell-based
Procedure: As regards the results of FIG. 11 a, DMD cells were incubated with increasing amounts of […] molecule or as a control with DMSO. RNAs were purified using RNazol reagent (MRC) and reverse transcribed using Superscript. II (Life technologies) and random hexamer. PCR using radiolabelled CTP was performed in order to amplify either dystrophin or GAPDH cDNA. Amplification products were loaded on 5% polyacrylamide gel. The gel was then dried and exposed on phosphoscreen in order to allow quantification of each amplification species by Personal Molecular Imager (Biorad).

[5] = after oral administration; cited from earlier work
[6] = system: NMD (Firefly luciferase mRNA tethered with MS2-UPF fusion protein); experiment: NMD inhibition using Firefly luciferase in HeLa cells; format: cell-based; conditions: 10 μmol/l of G07, versus control wells
Text: The presence of one of the following UPF proteins (UPF1, UPF2, UPF3 (also called UPF3a) or UPF3X (also called UPF3b)) on the 3′UTR part of an mRNA, activates NMD on this particular mRNA. When an UPF protein is located downstream from a normal stop codon, said normal stop codon is recognized as a PTC. Consequently, the mRNA comprising the UPF protein will be degraded through NMD.
HeLa cell-line expressing Firefly luciferase mRNA were used. Firefly luciferase mRNA harbors MS2 binding sites in the 3′UTR. The above-mentioned cells further contain a fusion protein which consists in said MS2 protein and one of the four UPF proteins. This fusion protein enables UPF positioning downstream from the normal stop codon (i.e. on the 3′UTR part of this mRNA). Accordingly, the normal stop codon is recognized as a PTC. Consequently, NMD is activated and degrades Firefly luciferase mRNA.
Luciferase activity in the above-mentioned cells is thus directly linked to NMD activity.
HeLa cells were cultured in DMEM (Gibco) supplemented with 10% FBS and containing 10 μmol/l of G07.

[7] = system: P53 protein in Calu-6 cells; experiment: P53 and P21 protein in Calu-6 cells by Western blot; format: cell-based
Procedure: Moreover, G07 enables the synthesis of a truncated P53 protein and a full-length P53 protein in Calu-6 cells. G07 is thus different from the molecules disclosed in WO 2008/101935. Regarding the molecules disclosed in the above-mentioned document, only the truncated protein has been detected. Protein extracts of Calu-6 cells incubated or not with G07 were loaded on an electrophoresis gel and then transferred on a nitrocellulose membrane in order to detect P53 protein after incubation with an anti-P53 antibody (an anti-P53 antibody is an antibody directed against the amino terminal part of P53 (Santa Cruz)).
When P53 protein is synthesized, P53 activates P21 expression. […] Thus, P53 protein synthesized thanks to G07 induces P21 expression as WT P53 protein does. Consequently, the Applicants have thus confirmed that G07 enables the synthesis of a functional full-length P53 protein.

[8] = system: P53 mRNA (UGA PTC at codon 196) in Calu-6 cells; experiment: P53 mRNA level in Calu-6 cells by RT-PCR; format: cell-based
Text: RNAs of said Calu-6 cells were reverse transcribed and amplified through PCR (RT-PCR) in the presence of a radioactive labeling nucleotide in order to measure P53 mRNA and GAPDH mRNA levels (GAPDH being used as a loading control). […] Amplified reverse transcribed mRNAs were loaded on an acrylamide gel and submitted to electrophoresis. Acrylamide gel was then dried on Whatman paper and applied on a phosphoscreen (Kodak). A Personal Molecular Imager (Bic-Rad) was used to quantify amplified radiolabelled species. Calu-6 cells were incubated with growing concentrations of G07 in DMSO during about twenty hours. This was carried out in order to confirm NMD inhibition activity of G07. After incubation, RNAs were purified by using TriReagent (MRC) and then reverse-transcribed into cDNA which can be PCR amplified in presence of a radiolabelled nucleotide.
Thus, an increasing quantity of P53 mRNA results from stabilization thereof. […] GAPDH (Glyceraldehyde 3-phosphate deshydrogenase) mRNA was amplified in order to normalize the measurement of P53 mRNA between two lanes.

NMD = conditions: cited from earlier work

| Compound | ratio amount of CFTR mRNA/amount of GAPDH mRNA [1] | concentration of maximum efficacy, dystrophin protein [2] | dystrophin protein (Western-blot) ([2]; increasing amounts) | iodide efflux (CFTR in 6-CFSMEo- cells) | MOR mRNA level in brain [3] | concentration of maximum efficacy, dystrophin mRNA [4] | dystrophin mRNA (RT-PCR) ([4]; increasing amounts) | tissue distribution [5] | luciferase activity (NMD inhibition) [6] | P21 protein (functionality of P53) ([7]; 25 and 125 μM) | P53 protein synthesis (Western blot) ([7]; about 20 hours incubation) | NMD inhibition / P53 mRNA stabilization ([8]; 25 μM) | quantity of P53 mRNA (normalised to GAPDH mRNA) ([8]; growing concentrations in DMSO, about twenty hours) | NMD inhibiting activity (NMD) |
| --- | --- | --- | --- | --- | --- | --- | --- | --- | --- | --- | --- | --- | --- | --- |
| CC(C)c1ccc2oc3nc(N)c(C(=O)O)cc3c(=O)c2c1 [G07, 2-amino-7-isopropyl-5-oxo-5H-chromeno[2,3-b]pyridine-3-carboxylic acid] | increased stabilization of CTFR mRNA | 5 µM | synthesis of dystrophin protein | dose-response effect | stabilization of MOR mRNA | 5 µM | stabilization of dystrophin mRNA | preferably distributed in liver, kidneys and intestine | higher than in control wells | presence of P21 | full-length and truncated P53 proteins are synthesized | inhibits NMD and enables a stabilization of P53 mRNA | increased quantity of P53 mRNA | – |
| O=C(O)c1cccc(-c2noc(-c3ccccc3F)n2)c1 [PTC124, 3-[5-(2-fluorophenyl)-1,2,4-oxadiazol-3-yl]benzoïc acid] | – | – | – | – | – | – | – | – | – | – | – | – | – | no NMD inhibiting activity |
